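96-well plates; 48 h exposure; 5 concentrations. Endpoints by linear interpolation between flanking doses. Not reached: highest tested concentration assigned. TGI denotes the concentration required for complete inhibition of growth.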
What was measured:
Assay in all cases: NCI anticancer screen, dose series, 48 h
K-562 leukemia = test system: K-562 leukemia
NCI-H226 lung = test system: NCI-H226 lung
DU-145 prostate = test system: DU-145 prostate
MALME-3M melanoma = test system: MALME-3M melanoma
RPMI-8226 leukemia = test system: RPMI-8226 leukemia
HOP-92 NSCLC = test system: HOP-92 NSCLC
SK-MEL-2 melanoma = test system: SK-MEL-2 melanoma
SF-295 CNS = test system: SF-295 CNS
HL-60(TB) leukemia = test system: HL-60(TB) leukemia
MDA-MB-435 = test system: MDA-MB-435
OVCAR-8 ovarian = test system: OVCAR-8 ovarian
A549 NSCLC = test system: A549 NSCLC
A498 renal = test system: A498 renal
SF-268 CNS = test system: SF-268 CNS
NCI-H522 lung = test system: NCI-H522 lung
SNB-75 CNS = test system: SNB-75 CNS
MOLT-4 leukemia = test system: MOLT-4 leukemia
HCT-116 colon = test system: HCT-116 colon
PC-3 prostate = test system: PC-3 prostate
HCC-2998 colon = test system: HCC-2998 colon

SMILES	TGI (K-562 leukemia) [µM]	TGI (NCI-H226 lung) [µM]	TGI (DU-145 prostate) [µM]	TGI (MALME-3M melanoma) [µM]	TGI (RPMI-8226 leukemia) [µM]	TGI (HOP-92 NSCLC) [µM]	TGI (SK-MEL-2 melanoma) [µM]	TGI (SF-295 CNS) [µM]	TGI (HL-60(TB) leukemia) [µM]	TGI (MDA-MB-435) [µM]	TGI (OVCAR-8 ovarian) [µM]	TGI (A549 NSCLC) [µM]	TGI (A498 renal) [µM]	TGI (SF-268 CNS) [µM]	TGI (NCI-H522 lung) [µM]	TGI (SNB-75 CNS) [µM]	TGI (MOLT-4 leukemia) [µM]	TGI (HCT-116 colon) [µM]	TGI (PC-3 prostate) [µM]	TGI (HCC-2998 colon) [µM]
COc1cccc(Cc2cc(=O)c3ccc(C)nc3[nH]2)c1	> 100	> 100	> 100	> 100	> 100	> 100	> 100	> 100	> 100	> 100	> 100	> 100	> 100	> 100	65	> 100	> 100	> 100	–	–
COc1cc(N(Cc2ccc3nc(OC)c(OC)nc3c2)Cc2ccc3nc(OC)c(OC)nc3c2)cc(OC)c1OC	–	> 50	> 50	> 50	> 50	–	> 50	> 50	> 50	> 50	> 50	> 50	–	> 50	> 50	15.6	> 50	> 50	> 50	–
Cc1ccc2c(=O)cc(-c3ccsc3)[nH]c2n1	> 100	56.8	> 89.8	> 100	–	> 100	> 30.6	23.6	20.2	–	> 100	> 44.7	> 100	> 100	> 27.3	35	> 30.7	> 75.6	> 61.9	42.9
CCCCCCCCCCCCCCCCOCC(CCl)OP(=O)(O)OP(=O)(O)OCC1OC(n2ccc(N)nc2=O)C(O)C1O (stereo not drawn)	> 100	> 100	–	> 100	> 100	> 100	> 100	> 100	> 100	> 100	> 100	> 100	> 100	> 100	> 100	22	> 100	> 100	> 100	> 100
CC(=O)OCC(OC(C)=O)C(OC(C)=O)C(OC(C)=O)C(C=NN(C(C)=O)S(=O)(=O)c1ccc(/C=C2\NC(=O)NC2=O)cc1)OC(C)=O (stereo not drawn)	> 100	> 100	> 100	> 100	> 100	–	> 100	> 100	–	> 100	> 100	> 100	> 100	> 100	> 100	> 100	> 100	> 100	> 100	> 100
CC(C)N1CN(C(C(=O)N[C@@H]2C(=O)N3C2SC(C)(C)C3C(=O)O)c2ccc(O)cc2)CSC1=S (stereo partly drawn)	> 100	–	–	> 100	> 100	> 100	> 100	> 100	> 100	–	> 100	–	> 100	> 100	> 100	> 100	> 100	> 100	–	–
COc1ccc2[nH]cc(CCNC(=O)[C@](O)(Cc3cn(C)c4ccccc34)[C@@]3(O)OCC(O)C3O)c2c1 (stereo partly drawn)	> 100	> 100	–	> 100	> 100	> 100	> 100	> 100	> 100	–	> 100	> 100	–	> 100	> 100	> 100	> 100	> 100	–	> 100
CC(=O)c1cccc(NC(=O)C(=O)Nn2c(N)nnc2N)c1	> 100	> 100	–	> 100	> 100	> 100	> 100	> 100	> 100	–	> 100	> 100	> 100	> 100	> 100	> 100	> 100	> 100	–	> 100
COc1c(C)cc2c(c1O)C1NC(C2)[C@H](O)N2C3COC(=O)[C@@]4(CS[C@@H](c5c(OC(C)=O)c(C)c6c(c53)OCO6)C12)NCCC1=C4NC2C=CC=CC12 (stereo partly drawn)	0.0202	< 0.01	–	< 0.01	0.0161	–	< 0.01	< 0.01	< 0.01	–	< 0.01	< 0.01	< 0.01	0.0304	–	< 0.01	< 0.01	–	–	< 0.01
CCOP(=O)(OCC)C(C(=O)OC)C(=O)C(=O)Nc1c(C)cc(Br)cc1C (stereo not drawn)	> 100	> 100	–	> 100	> 100	> 100	> 100	–	> 100	–	> 100	> 100	> 100	> 100	> 100	> 100	> 100	> 100	–	> 100
COC(=O)CSC(=S)Nc1nnc(NC(=S)SCOC(C)=O)n1C(=S)SCC(=O)OC	> 100	–	> 100	–	> 100	–	–	> 100	> 100	> 100	–	–	> 100	> 100	–	–	> 100	> 100	> 100	> 100
COC(=O)c1c2c(cc3c1CC1(Cc4cc5c(cc4C1=O)CCC5)C3)CCC2 (stereo not drawn)	> 100	> 100	> 100	> 100	57.7	–	> 100	> 100	> 100	> 100	> 100	> 100	> 100	> 100	> 100	> 100	> 100	> 100	> 100	> 100
Cc1ccc(/C=C2\Cc3cccc(C)c3C2=O)c(C(=O)O)c1	> 100	> 100	> 100	> 100	> 100	53.6	–	> 100	> 100	–	> 100	> 100	> 100	> 100	60.8	> 100	> 100	> 100	> 100	> 100
CC[C@]12C=CCN3CC[C@@]4(c5cc(Br)c(OC)cc5N(C)[C@H]4[C@@](O)(C(=O)N[C@@H](Cc4ccc(O)cc4)C(=O)OC)[C@@H]1O)[C@@H]32	> 100	–	> 100	29.1	36	–	60.1	38.7	57.8	35.8	> 100	> 100	40.8	52.4	54.4	–	62.3	> 100	> 100	94.6
CN1Cc2cc3c(cc2-c2ccccc21)OCO3	> 100	–	–	–	> 100	> 100	> 100	> 100	> 100	–	> 100	> 100	> 100	> 100	> 100	> 100	> 100	> 100	–	> 100
Cc1nc(C(N)=S)sc1C(=O)CC(=O)C(=O)Nc1nc2ccccc2[nH]1	> 100	> 100	–	> 100	> 100	> 100	> 100	> 100	> 100	> 100	> 100	> 100	> 100	> 100	> 100	> 100	> 100	> 100	> 100	> 100
Brc1cc2c(cc1C1SCCS1)OCO2	> 100	–	–	> 100	> 100	–	> 100	> 100	> 100	–	> 100	> 100	> 100	> 100	> 100	> 100	> 100	> 100	–	> 100
O=[N+]([O-])c1c(C=Nc2ccccc2)oc(-c2ccc3c(c2)OCO3)c1-c1ccc2c(c1)OCO2	> 100	> 100	–	> 100	> 100	> 100	–	> 100	> 100	–	> 100	> 100	–	> 100	> 100	> 100	> 100	> 100	–	> 100
COC1O[C@H]2[C@H]3[C@@H]1[C@@H](OS(=O)(=O)c1ccc(C)cc1)C(=O)N3C[C@H]2O (stereo partly drawn)	> 100	> 100	> 100	> 100	> 100	–	> 100	> 100	–	> 100	> 100	> 100	> 100	> 100	–	–	> 100	> 100	> 100	> 100
COc1ccc2c(ccc3c(COC(=O)NC(C)C)c(COC(=O)NC(C)C)n(C)c32)c1	> 100	23.2	–	12.2	> 100	27.2	32.5	46.2	–	44.1	34.2	55.2	21	29.7	12.8	15.8	> 100	17.4	24.3	–
CCOC(=O)C1=CC(C)(C(=O)OCC)Nc2c(nc(OC)[nH]c2=O)N1 (stereo not drawn)	> 10	> 10	> 10	> 10	> 10	> 10	> 10	> 10	–	–	> 10	> 10	> 10	> 10	> 10	> 10	> 10	> 10	> 10	> 10
CN(Cc1ccccc1)C(=NC#N)N(C)Cc1ccccc1	–	–	–	–	–	> 100	> 100	> 100	–	–	> 100	> 100	–	> 100	> 100	–	–	> 100	–	> 100
O=c1[nH]c(=O)n(C2CC(O)C(CO)O2)cc1OCC1CCCCC1 (stereo not drawn)	> 100	> 100	> 100	> 100	–	–	–	> 100	> 100	> 100	> 100	> 100	–	> 100	> 100	> 100	> 100	> 100	> 100	–
COc1cc(/C=C2\C(=O)N(C(=O)c3ccc(NC(C)=O)cc3)N=C2C)ccc1O	> 100	> 100	–	> 100	> 100	–	–	> 100	> 100	–	> 100	> 100	–	> 100	> 100	> 100	> 100	> 100	–	> 100
COc1ccc(C=C(c2ccc(OCc3ccccc3)cc2)c2ccc(OCc3ccccc3)cc2)cc1	–	> 100	–	> 100	> 100	–	> 100	> 100	> 100	–	> 100	> 100	–	> 100	> 100	> 100	–	–	–	> 100
O=C1C2CN(Cc3ccccc3)CC1CN(CC1CC1)C2	> 100	> 100	–	> 100	> 100	> 100	> 100	> 100	> 100	–	> 100	> 100	> 100	> 100	> 100	> 100	> 100	–	–	–
COc1ccccc1/C=C1\CCC(CCN2CCOCC2)C1=O (stereo not drawn)	> 100	> 100	–	> 100	> 100	> 100	> 100	> 100	> 100	–	> 100	> 100	> 100	> 100	–	> 100	> 100	> 100	–	> 100
